Common to all, as to assay: growth of human tumour cells (NCI), 48 h
Assay [1] relates to COLO 205.
The subject of assay [2] is CCRF-CEM.
Assay [3] has as its system ACHN.
The test system of assay [4] is SF-268.
For assay [5], the system named is TK-10.
Assay [6] concerns MDA-MB-435.
Assay [7] concerns SK-MEL-5.
Assay [8] has as its system SF-295.
Assay [9] relates to PC-3.
Assay [10] deals with A498.
Assay [11] has as its system OVCAR-3.
For assay [12], the system named is RPMI-8226.
The subject of assay [13] is HL-60.
Assay [14] has as its system MDA-MB-231.
Assay [15] concerns NCI-H460.
Assay [16] deals with IGROV-1.
In assay [17] the test system is KM12.
Assay [18] relates to HCT-15.
For assay [19], the system named is HOP-92.
Assay [20] has as its system HCT-116.

From ChEMBL document CHEMBL1201862, “PubChem BioAssay data set” (2004) come the findings set out here.

The structures appear in SMILES notation.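 Following 48 hours of exposure in 96-well plates, responses at five concentrations were used to interpolate endpoints linearly. At the GI50, growth is halved.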 The source made the active and inactive calls. Cut-off read from the data, not from the text of the source: active = GI50 up to about 1.1 µM and inactive = higher.

On to `CCOC(=O)c1csc(NC(=O)CN2CCOCC2)n1`, for which the GI50 in assay [1], in [2], in [3], in assay [4], in [5] and in assay [6] was > 100 µM (inactive) in each case. The GI50 in [7], in assay [8], in assay [9], in assay [10], in assay [11] and in assay [12] was > 100 µM (inactive) throughout. Further, the GI50 in assay [13] is > 100 µM (inactive); in assay [14], > 100 µM (inactive); in assay [15], > 100 µM (inactive); in assay [16], > 100 µM (inactive); in [17] it was > 100 µM (inactive); in assay [18], more than 100 µM. Also, the GI50 in assay [19] is > 100 µM (inactive).

On to `O=[N+]([O-])c1ccc(C2c3c(O)nc(S)nc3Oc3nc(S)nc(O)c32)cc1`, for which the GI50 in [1], in assay [2], in assay [3], in assay [5], in assay [6] and in assay [7] was > 100 µM (inactive) throughout. Besides, the GI50 in assay [8], in [20], in assay [9], in assay [10], in assay [11] and in assay [12] was > 100 µM (inactive) each time. The GI50 is > 100 µM (inactive) in assay [13]; > 100 µM (inactive) in assay [14]; > 100 µM (inactive) in assay [15]; > 100 µM (inactive) in assay [16]; > 100 µM (inactive) in assay [17]; more than 100 µM in [18]. Besides, the GI50 in assay [19] was > 100 µM (inactive).

Take `N#Cc1c2c(c(Nc3ccc(F)cc3)n3c1nc1ccccc13)CCC2`: the GI50 is 6.31 µM (inactive) in [1]; 0.791 µM (active) in [2]; 2.29 µM (inactive) in [3]; 3.55 µM (inactive) in [4]; 3.7 µM (inactive) in [5]; 3.25 µM (inactive) in assay [6]. Besides, the GI50 in [7] is 3.54 µM (inactive); in [8] it was 5.05 µM (inactive); in assay [20], 1.76 µM (inactive); in assay [9], 5.14 µM (inactive); in [10], 12.9 µM (inactive); in assay [11], 7.89 µM (inactive). The GI50 in assay [12] is 2.28 µM (inactive); in [13] it was 3.96 µM (inactive); in assay [14], 3.61 µM (inactive); in assay [15], 7.21 µM (inactive); in assay [16] it was 3.52 µM (inactive); in assay [17], 6.55 µM (inactive). The values for the GI50 in [18] and in [19] were 3.99 µM and 6.37 µM (inactive), respectively.

Regarding `COc1ccc(/C=C/C(=O)Oc2cc(O)cc(O)c2)cc1`, the GI50 is 57.9 µM (inactive) in [1]; 11.5 µM (inactive) in [2]; 87.5 µM (inactive) in assay [3]; 26.2 µM (inactive) in [4]; > 100 µM (inactive) in assay [5]; 61.9 µM (inactive) in assay [6]. Moreover, the GI50 in [7] is 52.8 µM (inactive); in [8], 23.2 µM (inactive); in assay [20], 14.3 µM (inactive); in [9], 43.6 µM (inactive); in assay [10], > 100 µM (inactive); in assay [11] it was 18 µM (inactive). Also, the GI50 was 16.3 µM (inactive) in assay [12]; 22 µM (inactive) in [13]; 35.7 µM (inactive) in assay [14]; > 100 µM (inactive) in assay [15]; 16.5 µM (inactive) in assay [16]; 14.2 µM (inactive) in [17]. Besides, the GI50 was 16.9 µM in [18] and 93.1 µM (inactive) in [19].

`CC(=O)NC1C(Sc2ncn(C3OC(CO)C(O)C(O)C3NC(C)=O)n2)OC(CO)C(O)C1O` (stereo unspecified): the GI50 in assay [1] is > 100 µM (inactive); in assay [2], 29 µM (inactive); in assay [3], > 100 µM (inactive); in assay [4], > 100 µM (inactive); in [5], > 100 µM (inactive); in assay [6], > 100 µM (inactive). Besides, the GI50 in assay [7], in [8], in assay [20], in [9], in assay [10] and in assay [11] was > 100 µM (inactive) throughout. For the same molecule, the GI50 in [12], in [13], in [14], in [15], in assay [16] and in assay [17] was > 100 µM (inactive) throughout. Also, the values for the GI50 in [18] and in assay [19] were more than 100 µM and > 100 µM (inactive), respectively.

Turning to `CCOC(=O)/C(=C\c1cccc(C)c1)C(C)=O`, the GI50 in assay [1] was 19.2 µM (inactive); in [3], 22.4 µM (inactive); in [4], 15.2 µM (inactive); in assay [5] it was 16.3 µM (inactive); in [6], 16.3 µM (inactive); in [7], 16.6 µM (inactive). Further, the GI50 was 23.4 µM (inactive) in assay [8]; 16.7 µM (inactive) in assay [20]; 10.5 µM (inactive) in assay [9]; 13.4 µM (inactive) in [10]; 14.5 µM (inactive) in assay [11]; 8.17 µM (inactive) in [12]. In addition, the GI50 was 3.98 µM (inactive) in [13]; 12.4 µM (inactive) in assay [14]; 20.8 µM (inactive) in [15]; 15.4 µM (inactive) in assay [16]; 15.2 µM (inactive) in assay [17]; 15.6 µM in [18]. The GI50 in assay [19] was 6.7 µM (inactive).

Take `NNC(=O)c1cc([N+](=O)[O-])ccc1NC(=O)C12CC3CC(CC(C3)C1)C2`: the GI50 in [1] was 6.04 µM (inactive); in assay [2] it was 2.27 µM (inactive); in [3], 10 µM (inactive); in assay [4] it was 3.82 µM (inactive); in [5], 12.2 µM (inactive); in [6], 14.3 µM (inactive). For the same molecule, the GI50 in [7] is 19.2 µM (inactive); in assay [8], 14 µM (inactive); in [20], 7.74 µM (inactive); in assay [9], 13 µM (inactive); in assay [11], 3.15 µM (inactive); in [12], 12.2 µM (inactive). Besides, the GI50 was 3.09 µM (inactive) in assay [13]; 5.01 µM (inactive) in [14]; 18.1 µM (inactive) in assay [15]; 1.9 µM (inactive) in [16]; 20.1 µM (inactive) in assay [17]; 0.635 µM in assay [18]. The GI50 in assay [19] was 12.9 µM (inactive).

As for `CCCCCCCCC[C@@H]1C[C@@H]2CCC3C(C(=O)OC)=C(C)N=C(N1)N32` (stereo partly specified), the GI50 in assay [1] is 3.37 µM (inactive); in assay [2], > 100 µM (inactive); in assay [3], 16.1 µM (inactive); in assay [4], 5.05 µM (inactive); in assay [5], 13.2 µM (inactive); in assay [6] it was 2.25 µM (inactive). In addition, the GI50 was 5.32 µM (inactive) in assay [7]; 9.4 µM (inactive) in assay [8]; 4.25 µM (inactive) in [20]; 3.64 µM (inactive) in [9]; 3.21 µM (inactive) in [11]; 6 µM (inactive) in [12]. In addition, the GI50 in assay [13] was 3.47 µM (inactive); in assay [14] it was 5.13 µM (inactive); in assay [15], 3.65 µM (inactive); in [16], 4.72 µM (inactive); in assay [17], 3.43 µM (inactive); in assay [18] it was 16.5 µM. Besides, the GI50 in [19] is 10 µM (inactive).

`CCNc1ncnc2nn[nH]c12`: the GI50 in assay [1], in assay [2], in assay [3], in assay [5], in [6] and in assay [7] was > 100 µM (inactive) in each case. The GI50 in [8], in assay [20], in assay [9], in [10], in [11] and in assay [12] was > 100 µM (inactive) in each case. Besides, the GI50 was > 100 µM (inactive) in [13]; > 100 µM (inactive) in assay [14]; > 100 µM (inactive) in [16]; > 100 µM (inactive) in assay [17]; more than 100 µM in assay [18]; > 100 µM (inactive) in assay [19].

For `O=C(O)C1C(=O)Oc2c(cccc2[N+](=O)[O-])C1O` (stereo unspecified), the GI50 in assay [1], in [2], in [3], in assay [4], in [5] and in assay [6] was > 100 µM (inactive) throughout. In addition, the GI50 in [7], in assay [8], in assay [20], in assay [9], in assay [10] and in assay [11] was > 100 µM (inactive) each time. Moreover, the GI50 in [12] was > 100 µM (inactive); in assay [13] it was > 100 µM (inactive); in assay [14] it was > 100 µM (inactive); in assay [15] it was > 100 µM (inactive); in [16], > 100 µM (inactive); in assay [18], more than 100 µM. Also, the GI50 in assay [19] was > 100 µM (inactive).

On to `COc1ccc(-c2csc3c2-n2cccc2C3=O)cc1`, for which the GI50 was 0.215 µM (active) in assay [1]; 0.0242 µM (active) in assay [2]; 0.805 µM (active) in assay [3]; 1.75 µM (inactive) in [4]; 0.0132 µM (active) in [6]; 0.0581 µM (active) in assay [7]. The GI50 in [8] was 0.0395 µM (active); in assay [20], 0.0461 µM (active); in assay [9], < 0.0367 µM (active); in [10], 0.698 µM (active); in [11], 0.0416 µM (active); in assay [12], 0.0425 µM (active). The GI50 is < 0.0176 µM (active) in [13]; < 0.0375 µM (active) in assay [14]; 0.11 µM (active) in assay [15]; 0.258 µM (active) in assay [16]; 0.0401 µM (active) in [17]; 0.0653 µM in [18]. Also, the GI50 in [19] is 3.12 µM (inactive).
